Results taken from the supplement of paper PMC4380931.

Key:
Test in all cases: apoptotic fraction of cells (caspase-3 NucView488 positive); higher = more apoptosis
[1] = test system: C32
Method: (§1)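 BRAF V600E/D melanoma cell lines were seeded in 96-well plates, treated in 4 replicates with seven doses (3.16 nM to 3.16 uM) of RAF/MEK inhibitors for 24, 48 or 72 h, and stained with Hoechst 33342 (nuclei) and DEVD-NucView488 caspase-3 substrate. Plates were imaged on an Operetta. Relative viability is the cell count normalised to a DMSO-treated control; apoptosis fraction is the fraction of NucView488-positive nuclei.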

[2] = test system: COLO858
Method: as §1

[3] = test system: K2
Method: as §1

[4] = test system: LOXIMVI
Method: as §1

[5] = test system: RVH421
Method: as §1

CN(C)CCOc1ccc(-c2nc(-c3ccncc3)c(-c3ccc4c(c3)CC/C4=N\O)[nH]2)cc1
apoptotic fraction of cells
Conditions | 0.00316 µM | 0.01 µM | 0.0316 µM | 0.1 µM | 0.316 µM | 1 µM | 3.16 µM
[1], 24 h | 0.0901 | 0.138 | 0.159 | 0.194 | 0.225 | 0.24 | 0.271
[1], 48 h | 0.0832 | 0.121 | 0.0893 | 0.077 | 0.189 | 0.38 | 0.524
[1], 72 h | 0.0657 | 0.0532 | 0.0299 | 0.0807 | 0.274 | 0.474 | 0.542
[2], 24 h | 0.0451 | 0.0421 | 0.0423 | 0.0572 | 0.0792 | 0.123 | 0.13
[2], 48 h | 0.0512 | 0.0508 | 0.0484 | 0.0742 | 0.153 | 0.237 | 0.341
[2], 72 h | 0.0855 | 0.0692 | 0.0676 | 0.077 | 0.141 | 0.268 | 0.424
[3], 24 h | 0.00595 | 0.00244 | 0.00221 | 0.00264 | 0.0035 | 0.0129 | 0.0372
[3], 48 h | 0.00193 | 0.00284 | 0.00174 | 0.00423 | 0.00888 | 0.0309 | 0.0801
[4], 24 h | 0.0512 | 0.0389 | 0.0361 | 0.0658 | 0.0417 | 0.0511 | 0.0461
[4], 48 h | 0.143 | 0.0806 | 0.0671 | 0.0471 | 0.0374 | 0.0404 | 0.0453
[4], 72 h | 0.253 | 0.188 | 0.135 | 0.0607 | 0.0478 | 0.0458 | 0.0628
[5], 24 h | 0.0543 | 0.0588 | 0.0478 | 0.0495 | 0.0536 | 0.062 | 0.0619
[5], 48 h | 0.05 | 0.0534 | 0.0615 | 0.0578 | 0.0567 | 0.0708 | 0.0883
[5], 72 h | 0.0342 | 0.0346 | 0.0361 | 0.044 | 0.0408 | 0.0371 | 0.033
